These molecules were tested against binding of tritiated LTB4 to guinea pig lung membranes (Cavia porcellus, UniProt H0VYV8) (assay: biochemical). Conditions: read-out: pKi (mean -log Ki) (converted).
Sequence of binding of tritiated LTB4 to guinea pig lung membranes (H0VYV8 1-348): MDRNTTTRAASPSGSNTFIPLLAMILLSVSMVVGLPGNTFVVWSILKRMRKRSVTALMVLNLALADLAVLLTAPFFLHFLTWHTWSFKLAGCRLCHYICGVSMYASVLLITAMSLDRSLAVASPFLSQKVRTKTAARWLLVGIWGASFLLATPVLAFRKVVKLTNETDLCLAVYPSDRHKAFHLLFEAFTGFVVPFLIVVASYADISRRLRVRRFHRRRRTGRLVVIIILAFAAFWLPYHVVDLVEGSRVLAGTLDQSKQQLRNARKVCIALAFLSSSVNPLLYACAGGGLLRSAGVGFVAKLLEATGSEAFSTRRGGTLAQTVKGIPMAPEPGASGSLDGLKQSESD
Method: The effectiveness of compounds of Formula I to inhibit the binding of tritiated LTB4 to guinea pig lung membranes was determined as follows.
The binding reaction was terminated by the addition of 1 mL ice cold wash buffer (25 mM Tris-HCl, pH 7.5) followed immediately by vacuum filtration over Whatman GF/C glass fiber filters using a Brandel (Gaithersburg, Md.) 48 place harvester. The filters were washed three times with 1 mL of wash buffer. Retained radioactivity was determined by liquid scintillation counting at 50% counting efficiency using Ready Protein Plus cocktail (Beckman, Fullerton, Calif.). Nondisplaceable binding was determined in the presence of 1 μM LTB4 and was usually less than 10% of total binding. […] The data reported below is the mean -log Ki, otherwise known as the pKi, for n experiments.

Row | SMILES | Ki
1 | CCc1cc(-c2ccc(F)cc2)c(O)cc1OCCCOc1cccc(OCCCCSC)c1CCC(=O)O [Example 15, 3-(2-(3-(2-Ethyl-4-(4-fluorophenyl)-5-hydroxyphenoxy)propoxy)-6-(4-methylthiobutyloxy)phenyl)propionic acid] | 5.89 nM
2 | CCc1cc(-c2ccc(F)cc2)c(O)cc1OCCCOc1cccc(OCCCCC(=O)N(C)C)c1CCC(=O)O [Example 3, 3-(2-(3-(2-Ethyl-4-(4-fluorophenyl)-5-hydroxyphenoxy)propoxy)-6-(4-dimethylaminocarbonylbutyloxy)phenyl)propionic acid] | 8.32 nM
3 | CCCc1c(OCCCOc2cc(O)c(-c3ccc(F)cc3)cc2CC)cccc1[S+]([O-])c1ccccc1C(=O)O (stereo not drawn) [Example 81, 2-[2-Propyl-3-[3-[2-ethyl-4-(4-fluorophenyl)-5-hydroxyphenoxy]propoxy]phenylsulfinyl]benzoic acid] | 1.35 nM
4 | CCc1cc(-c2ccc(F)cc2)c(O)cc1OCCCOc1ccccc1CCC(=O)N(C)C [Example 18, N,N-Dimethyl-3-(2-(3-(2-ethyl-4-(4-fluorophenyl)-5-hydroxyphenoxy)propoxy)phenyl)propionamide] | 245 nM
5 | CCCc1c(CCC(=O)O)cccc1OCCCOc1cc(O)c(-c2ccc(F)cc2)cc1CC [Example 95, 3-(3-{3-[2-Ethyl-4-(4-fluorophenyl)-5-hydroxyphenyloxy]propoxy}-2-propylphenyl)propanoic acid] | 5.5 nM
6 | CCc1cc(-c2ccc(F)cc2)c(O)cc1OCCCOc1cccc(Oc2ccccc2C(=O)O)c1CC(C)C [Example 74, 2-[2-(2-Methylpropyl)-3-[3-[2-ethyl-5-hydroxy-4-(4-fluorophenyl)phenoxy]propoxy]phenoxy]benzoic acid] | 13.8 nM
7 | CCc1cc(-c2ccc(F)cc2)c(O)cc1OCCCOc1ccc2c(c1CCC(=O)O)CCC(CC(=O)O)C2=O (stereo not drawn) [Example 51, 3-(5-(6-(4-(4-Fluorophenyl)-5-hydroxy-2-ethylphenoxy)propoxy)-2-carboxymethyl-1,2,3,4-tetrahydronaphthalen-1(2H)-one)propanoic acid] | 0.219 nM
8 | CCc1cc(-c2ccc(F)cc2)c(O)cc1OCCCOc1cccc2c1CCC(=O)O2 [Example 91, 5-[3-[4-(4-Fluorophenyl)-2-ethyl-5-hydroxyphenoxy]propoxy]-3,4-dihydro-2H-1-benzopyran-2-one] | 0.525 nM
9 | CCc1cc(-c2ccc(F)cc2)c(O)cc1OCCCOc1ccc(C(=O)CC(C)(C)CC(=O)O)cc1CCC(=O)O [Example 53] | 1.55 nM
10 | O=C(O)CCc1ccccc1OCCCOc1cc(O)c(-c2ccc(F)cc2)cc1Br [Example 30, 3-(2-(3-(2-Bromo-4-(4-fluorophenyl)-5-hydroxyphenoxy)propoxy)phenyl)propionic acid] | 186 nM
11 | CCCc1c(Cc2ccccc2C(=O)O)cccc1OCCCOc1cc(O)c(-c2ccc(F)cc2)cc1CC [Example 79, 2-[[2-Propyl-3-[3-[2-ethyl-5-hydroxy-4-(4-fluorophenyl)phenoxy]propoxy]phenyl]methyl]benzoic acid] | 10.5 nM
12 | CCc1cc(-c2ccc(F)cc2)c(O)cc1OCCCOc1ccc(NC(=O)CCCC(=O)N2CCOCC2)cc1CCC(=O)O [Example 69] | 12.9 nM
13 | CCc1cc(-c2ccc(F)cc2)c(O)cc1OCCCOc1cccc(O)c1CCC(=O)O [Example 13, 3-(2-(3-(2-Ethyl-4-(4-fluorophenyl)-5-hydroxyphenoxy)propoxy)-6-hydroxyphenyl)propionic acid] | 0.977 nM
14 | CCc1cc(-c2ccc(F)cc2)c(O)cc1OCCCOc1ccccc1C(O)C(C)(C)c1nnn[nH]1 (stereo not drawn) [Example 29, 2-Methyl-2-(1H-tetrazol-5-yl)-3-hydroxy-3-(2-(3-(2-ethyl-4-(4-fluorophenyl)-5-hydroxyphenoxy)propoxy)phenyl)propane] | 1.95 nM
15 | CCc1cc(-c2ccc(F)cc2)c(O)cc1OCC/C=C\c1ccccc1CCC(=O)O [9 (cis), 3-(2-(4-(2-Ethyl-4-(4-fluorophenyl)-5-hydroxyphenoxy)-(1-butenyl))phenyl)propionic acid] | 3.63 nM

From patent US5462954A, “Substituted phenyl phenol leukotriene antagonists” (Eli Lilly and Company, priority 1994, dated 1995)
